# From the Kinase Knowledgebase extract (Sharma et al. 2016)
# Positions of bridges follow the written chain, without caps; N, C: chain ends. Non-standard residues stand in square brackets, D forms with d. Residues, ends and D or L forms follow the SMILES beside them. *: point of attachment. pY = N[C@@H](Cc1ccc(OP(=O)(O)O)cc1)C(=O)O; O(2-Aminobenzoyl) = Nc1ccccc1C(=O)O*; X9 = O=S(=O)(O*)c1cccc2cccnc12; X13 = Nc1cc2ccccc2cc1C(=O)O*; X2 = O=C(O*)c1cc2ccccc2[nH]1; X3 = O=C(O*)c1cnc2ccccc2c1; X7 = O=C(O*)c1cc2ccccc2cn1; X8 = Nc1cc(N)cc(C(=O)O*)c1; X12 = Nc1ccccc1C(=O)OCCN*; X5 = O=C(O*)C1Cc2ccccc2N1; Ac6c = NC1(C(=O)O)CCCCC1; X11 = Nc1ccc(C(=O)O*)cc1; Ac5c = NC1(C(=O)O)CCCC1; X1 = Nc1ccccc1C(=O)OCN*; X6 = Nc1cccc(C(=O)O*)c1; X10 = Nc1ncccc1C(=O)O*; X4 = O=C(O*)c1ccccc1O; Acm = CC(=O)NC*
# Target: EGFR (UniProt P00533)
# Sequence (P00533 whole entry, looked up): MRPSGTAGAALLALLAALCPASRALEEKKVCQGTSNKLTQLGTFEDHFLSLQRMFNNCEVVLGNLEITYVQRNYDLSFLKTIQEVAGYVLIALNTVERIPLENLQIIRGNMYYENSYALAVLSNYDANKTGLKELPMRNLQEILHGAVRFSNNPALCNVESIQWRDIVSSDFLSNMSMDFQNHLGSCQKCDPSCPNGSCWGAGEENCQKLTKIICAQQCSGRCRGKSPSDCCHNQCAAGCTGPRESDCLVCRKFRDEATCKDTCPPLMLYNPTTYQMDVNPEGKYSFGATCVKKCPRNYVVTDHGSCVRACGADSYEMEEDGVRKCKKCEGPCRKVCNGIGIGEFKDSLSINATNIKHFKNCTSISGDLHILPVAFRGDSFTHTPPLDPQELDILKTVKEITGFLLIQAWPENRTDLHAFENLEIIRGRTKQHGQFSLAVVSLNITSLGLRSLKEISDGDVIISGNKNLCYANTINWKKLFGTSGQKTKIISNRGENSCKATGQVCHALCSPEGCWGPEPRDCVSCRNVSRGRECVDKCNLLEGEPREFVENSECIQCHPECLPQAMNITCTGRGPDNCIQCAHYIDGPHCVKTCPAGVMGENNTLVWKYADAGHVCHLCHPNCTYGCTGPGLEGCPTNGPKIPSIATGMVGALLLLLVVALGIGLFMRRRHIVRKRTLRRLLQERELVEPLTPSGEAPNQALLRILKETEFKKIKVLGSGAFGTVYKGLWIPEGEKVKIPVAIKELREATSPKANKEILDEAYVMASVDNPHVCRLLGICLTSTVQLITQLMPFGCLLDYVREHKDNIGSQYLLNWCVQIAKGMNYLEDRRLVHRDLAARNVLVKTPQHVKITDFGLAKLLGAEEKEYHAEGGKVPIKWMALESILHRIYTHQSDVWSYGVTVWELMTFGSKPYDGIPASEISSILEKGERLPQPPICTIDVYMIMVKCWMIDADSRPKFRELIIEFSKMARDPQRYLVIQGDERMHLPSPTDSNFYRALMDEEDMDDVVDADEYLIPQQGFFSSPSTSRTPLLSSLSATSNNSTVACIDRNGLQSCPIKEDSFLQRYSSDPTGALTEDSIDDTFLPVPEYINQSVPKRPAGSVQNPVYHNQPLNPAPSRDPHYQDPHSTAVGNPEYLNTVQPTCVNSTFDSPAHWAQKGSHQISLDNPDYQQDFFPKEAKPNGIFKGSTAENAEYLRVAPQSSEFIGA
row,SMILES,IC50 [nM]
1,CC[C@H](C)[C@H](NC(=O)[C@H](CC(N)=O)NC(=O)[C@@H](N)CSCNC(C)=O)C(=O)N[C@@H](Cc1ccc(OP(=O)(O)O)cc1)C(=O)N[C@@H](CSCNC(C)=O)C(=O)OC(=O)c1ccccc1N,96
2,CC[C@H](C)[C@H](NC(=O)[C@H](CC(N)=O)NC(=O)[C@H](N)CSCNC(C)=O)C(=O)N[C@@H](Cc1ccc(OP(=O)(O)O)cc1)C(=O)N[C@@H](CSCNC(C)=O)C(=O)OC(=O)c1ccccc1N,272
3,CC[C@H](C)[C@@H]1NC(=O)[C@H](CC(N)=O)NC(=O)[C@@H](N)CSSC[C@@H](C(=O)OC(=O)c2ccccc2N)NC(=O)[C@H](Cc2ccc(OP(=O)(O)O)cc2)NC1=O (H-CNI[pY]C-{O(2-Aminobenzoyl)}; disulfide 1-5),214
4,CC[C@H](C)[C@@H]1NC(=O)[C@H](CC(N)=O)NC(=O)[C@H](CCC(N)=O)NC(=O)[C@@H](N)CSSC[C@@H](C(=O)OC(=O)c2ccccc2N)NC(=O)[C@H](Cc2ccc(OP(=O)(O)O)cc2)NC1=O (H-CQNI[pY]C-{O(2-Aminobenzoyl)}; disulfide 1-6),15
5,CC[C@H](C)[C@H](N)C(=O)N[C@H](C(=O)N[C@@H](Cc1ccc(OP(=O)(O)O)cc1)C(=O)N[C@@H](CC(=O)O)C(=O)OC(=O)c1ccccc1N)[C@@H](C)CC (H-II[pY]D-{O(2-Aminobenzoyl)}),230
6,CC[C@H](C)[C@H](NC(=O)[C@@H](N)CC(N)=O)C(=O)N[C@@H](Cc1ccc(OP(=O)(O)O)cc1)C(=O)N[C@@H](CCC(=O)O)C(=O)OC(=O)c1ccccc1N (H-NI[pY]E-{O(2-Aminobenzoyl)}),22
7,CC[C@H](C)[C@H](NC(=O)[C@@H](N)CC(N)=O)C(=O)N[C@@H](Cc1ccc(OP(=O)(O)O)cc1)C(=O)N[C@@H](Cc1ccccc1)C(=O)OC(=O)c1ccccc1N (H-NI[pY]F-{O(2-Aminobenzoyl)}),54
8,NC(=O)C[C@H](N)C(=O)NC1(C(=O)N[C@@H](Cc2ccc(OP(=O)(O)O)cc2)C(=O)N[C@@H](CCC(=O)O)C(=O)OC(=O)c2ccccc2N)CCCC1 (H-N[Ac5c][pY]E-{O(2-Aminobenzoyl)}),64
9,NC(=O)C[C@H](N)C(=O)NC1(C(=O)N[C@@H](Cc2ccc(OP(=O)(O)O)cc2)C(=O)N[C@@H](CCC(=O)O)C(=O)OC(=O)c2ccccc2N)CCCCC1 (H-N[Ac6c][pY]E-{O(2-Aminobenzoyl)}),14
10,CC(=O)NCSC[C@H](NC(=O)[C@H](CC(N)=O)NC(=O)[C@@H](N)CCC(N)=O)C(=O)N[C@@H](Cc1ccc(OP(=O)(O)O)cc1)C(=O)N[C@@H](CSCNC(C)=O)C(=O)OC(=O)c1ccccc1N (H-QNC(Acm)[pY]C(Acm)-{O(2-Aminobenzoyl)}),3140
11,NC(=O)CC[C@H](N)C(=O)N[C@@H](CC(N)=O)C(=O)N[C@H]1CSSC[C@@H](C(=O)OC(=O)c2ccccc2N)NC(=O)[C@H](Cc2ccc(OP(=O)(O)O)cc2)NC1=O (H-QNC[pY]C-{O(2-Aminobenzoyl)}; disulfide 3-5),570
12,CC[C@H](C)[C@H](NC(=O)[C@H](CC(N)=O)NC(=O)[C@@H](N)CCC(N)=O)C(=O)N[C@@H](Cc1ccc(OP(=O)(O)O)cc1)C(=O)NCOC(=O)c1ccccc1N (H-QNI[pY]-X1),6
13,CC[C@H](C)[C@H](NC(=O)[C@H](CC(N)=O)NC(=O)[C@@H](N)CCC(N)=O)C(=O)N[C@@H](Cc1ccc(OP(=O)(O)O)cc1)C(=O)N[C@@H](C)C(=O)OC(=O)c1ccccc1N (H-QNI[pY]A-{O(2-Aminobenzoyl)}),11
14,CC[C@H](C)[C@H](NC(=O)[C@H](CC(N)=O)NC(=O)[C@@H](N)CCC(N)=O)C(=O)N[C@@H](Cc1ccc(OP(=O)(O)O)cc1)C(=O)N[C@@H](CCC(=O)O)C(=O)OC(=O)c1cc2ccccc2[nH]1 (H-QNI[pY]E-X2),200
15,CC[C@H](C)[C@H](NC(=O)[C@H](CC(N)=O)NC(=O)[C@@H](N)CCC(N)=O)C(=O)N[C@@H](Cc1ccc(OP(=O)(O)O)cc1)C(=O)N[C@@H](CCC(=O)O)C(=O)OC(=O)c1cnc2ccccc2c1 (H-QNI[pY]E-X3),810
16,CC[C@H](C)[C@H](NC(=O)[C@H](CC(N)=O)NC(=O)[C@@H](N)CCC(N)=O)C(=O)N[C@@H](Cc1ccc(OP(=O)(O)O)cc1)C(=O)N[C@@H](CCC(=O)O)C(=O)OC(=O)c1ccccc1O (H-QNI[pY]E-X4),780
17,CC[C@H](C)[C@H](NC(=O)[C@H](CC(N)=O)NC(=O)[C@@H](N)CCC(N)=O)C(=O)N[C@@H](Cc1ccc(OP(=O)(O)O)cc1)C(=O)N[C@@H](CCC(=O)O)C(=O)OC(=O)C1Cc2ccccc2N1 (some centres undefined) (H-QNI[pY]E-X5),74
18,CC[C@H](C)[C@H](NC(=O)[C@H](CC(N)=O)NC(=O)[C@@H](N)CCC(N)=O)C(=O)N[C@@H](Cc1ccc(OP(=O)(O)O)cc1)C(=O)N[C@@H](CCC(=O)O)C(=O)OC(=O)c1cccc(N)c1 (H-QNI[pY]E-X6),57
19,CC[C@H](C)[C@H](NC(=O)[C@H](CC(N)=O)NC(=O)[C@@H](N)CCC(N)=O)C(=O)N[C@@H](Cc1ccc(OP(=O)(O)O)cc1)C(=O)N[C@@H](CCC(=O)O)C(=O)OC(=O)c1cc2ccccc2cn1 (H-QNI[pY]E-X7),550
20,CC[C@H](C)[C@H](NC(=O)[C@H](CC(N)=O)NC(=O)[C@@H](N)CCC(N)=O)C(=O)N[C@@H](Cc1ccc(OP(=O)(O)O)cc1)C(=O)N[C@@H](CCC(=O)O)C(=O)OC(=O)c1cc(N)cc(N)c1 (H-QNI[pY]E-X8),180
21,CC[C@H](C)[C@H](NC(=O)[C@H](CC(N)=O)NC(=O)[C@@H](N)CCC(N)=O)C(=O)N[C@@H](Cc1ccc(OP(=O)(O)O)cc1)C(=O)N[C@@H](CCC(=O)O)C(=O)OC(=O)c1cccnc1N (H-QNI[pY]E-X10),480
22,CC[C@H](C)[C@H](NC(=O)[C@H](CC(N)=O)NC(=O)[C@@H](N)CCC(N)=O)C(=O)N[C@@H](Cc1ccc(OP(=O)(O)O)cc1)C(=O)N[C@@H](CCC(=O)O)C(=O)OC(=O)c1ccc(N)cc1 (H-QNI[pY]E-X11),230
23,CC[C@H](C)[C@H](NC(=O)[C@H](CC(N)=O)NC(=O)[C@@H](N)CCC(N)=O)C(=O)N[C@@H](Cc1ccc(OP(=O)(O)O)cc1)C(=O)N[C@@H](CCC(=O)O)C(=O)NCCOC(=O)c1ccccc1N (H-QNI[pY]E-X12),130
24,CC[C@H](C)[C@H](NC(=O)[C@H](CC(N)=O)NC(=O)[C@@H](N)CCC(N)=O)C(=O)N[C@@H](Cc1ccc(OP(=O)(O)O)cc1)C(=O)N[C@@H](CCC(=O)O)C(=O)OC(=O)c1cc2ccccc2cc1N (H-QNI[pY]E-X13),600
25,CC[C@H](C)[C@H](NC(=O)[C@H](CC(N)=O)NC(=O)[C@@H](N)CCC(N)=O)C(=O)N[C@@H](Cc1ccc(OP(=O)(O)O)cc1)C(=O)N[C@@H](CCC(=O)O)C(=O)OC(=O)c1ccccc1N (H-QNI[pY]E-{O(2-Aminobenzoyl)}),22
26,CC[C@H](C)[C@H](NC(=O)[C@H](CC(N)=O)NC(=O)[C@@H](N)CCC(N)=O)C(=O)N[C@@H](Cc1ccc(OP(=O)(O)O)cc1)C(=O)N[C@H](C(=O)OS(=O)(=O)c1cccc2cccnc12)[C@@H](C)CC (H-QNI[pY]I-X9),230
27,CC[C@H](C)[C@H](NC(=O)[C@H](CC(N)=O)NC(=O)[C@@H](N)CCC(N)=O)C(=O)N[C@@H](Cc1ccc(OP(=O)(O)O)cc1)C(=O)N[C@H](C(=O)OC(=O)c1ccccc1N)[C@@H](C)CC (H-QNI[pY]I-{O(2-Aminobenzoyl)}),6
28,CC[C@H](C)[C@H](NC(=O)[C@H](CC(N)=O)NC(=O)[C@@H](N)CCC(N)=O)C(=O)N[C@@H](Cc1ccc(OP(=O)(O)O)cc1)C(=O)N[C@@H](CC(C)C)C(=O)OC(=O)c1ccccc1N (H-QNI[pY]L-{O(2-Aminobenzoyl)}),138
29,CC[C@H](C)[C@H](NC(=O)[C@H](CC(N)=O)NC(=O)[C@@H](N)CCC(N)=O)C(=O)N[C@@H](Cc1ccc(OP(=O)(O)O)cc1)C(=O)N[C@H](C(=O)OC(=O)c1ccccc1N)C(C)C (H-QNI[pY]V-{O(2-Aminobenzoyl)}),106
